What all share (assay type): biochemical
Common to all, as to settings: 15 nM tritium labelled cAMP, 1 h at room temperature, SPA beads

One test has as its target PDE1C (Homo sapiens, UniProt Q14123). Nature of the test: PDE1 Inhibition Assay, PDE1C (SPA). As for the experimental part:
(§1) PDE1A, PDE1B and PDE1C assays were performed as follows: the assays was performed in 60 μL samples containing a fixed amount of the PDE1 enzym1 (sufficient to convert 20-25% of the cyclic nucleotide substrate), a buffer (50 mM HEPES pH 7.6; 10 mM MgCl2; 0.02% Tween20), 0.1 mg/ml BSA, 15 nM tritium labelled cAMP and varying amounts of inhibitors. Reactions were initiated by addition of the cyclic nucleotide substrate, and reactions were allowed to proceed for 1 h at room temperature before being terminated through mixing with 20 μL (0.2 mg) yttrium silicate SPA beads (PerkinElmer). The beads were allowed to settle for 1 h in the dark before the plates were counted in a Wallac 1450 Microbeta counter. The measured signals were converted to activity relative to an uninhibited control (100%) and IC50 values were calculated using XIFit (model 205, IDBS).

In another test the target is PDE1B (Homo sapiens, UniProt Q01064). Nature of the test: PDE1 Inhibition Assay, PDE1B (SPA). As for the experimental part: as §1
The next test has as its target PDE1A (Homo sapiens, UniProt P54750). Nature of the test: PDE1 Inhibition Assay, PDE1A (SPA). As for the experimental part:
as §1

PDE1C, sequence (Q14123 whole entry): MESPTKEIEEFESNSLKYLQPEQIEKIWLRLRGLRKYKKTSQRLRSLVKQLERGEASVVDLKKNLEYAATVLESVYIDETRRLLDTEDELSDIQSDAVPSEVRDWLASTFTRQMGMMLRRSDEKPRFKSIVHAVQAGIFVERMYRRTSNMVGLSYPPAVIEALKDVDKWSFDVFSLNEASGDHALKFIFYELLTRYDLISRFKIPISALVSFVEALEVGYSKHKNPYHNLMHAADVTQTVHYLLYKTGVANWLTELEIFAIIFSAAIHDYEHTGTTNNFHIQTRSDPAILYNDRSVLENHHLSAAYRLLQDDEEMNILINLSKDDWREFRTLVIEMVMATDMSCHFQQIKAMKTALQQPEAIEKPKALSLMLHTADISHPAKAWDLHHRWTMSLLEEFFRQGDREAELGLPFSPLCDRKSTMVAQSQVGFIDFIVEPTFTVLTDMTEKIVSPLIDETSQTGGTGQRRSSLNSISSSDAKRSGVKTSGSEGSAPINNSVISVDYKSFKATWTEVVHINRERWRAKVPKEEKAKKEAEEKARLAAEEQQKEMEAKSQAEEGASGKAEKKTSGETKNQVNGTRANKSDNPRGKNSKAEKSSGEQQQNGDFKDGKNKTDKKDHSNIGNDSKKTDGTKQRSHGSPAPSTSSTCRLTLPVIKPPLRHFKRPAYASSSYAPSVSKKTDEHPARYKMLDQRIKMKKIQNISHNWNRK
PDE1B, sequence (Q01064 whole entry): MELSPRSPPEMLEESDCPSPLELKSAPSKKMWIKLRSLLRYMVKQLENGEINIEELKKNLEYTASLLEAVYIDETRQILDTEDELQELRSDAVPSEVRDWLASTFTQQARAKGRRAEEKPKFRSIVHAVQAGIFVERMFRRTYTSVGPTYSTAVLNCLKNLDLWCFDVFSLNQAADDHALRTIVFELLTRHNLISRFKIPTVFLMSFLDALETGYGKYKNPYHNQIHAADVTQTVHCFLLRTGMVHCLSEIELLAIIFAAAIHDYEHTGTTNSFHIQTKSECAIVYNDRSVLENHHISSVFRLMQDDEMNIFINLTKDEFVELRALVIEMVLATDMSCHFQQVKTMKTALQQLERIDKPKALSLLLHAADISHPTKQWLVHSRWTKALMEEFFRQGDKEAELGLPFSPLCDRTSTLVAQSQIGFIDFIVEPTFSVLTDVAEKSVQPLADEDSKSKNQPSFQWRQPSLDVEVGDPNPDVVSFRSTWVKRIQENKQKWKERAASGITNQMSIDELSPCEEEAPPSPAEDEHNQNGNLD
PDE1A, sequence (P54750 whole entry): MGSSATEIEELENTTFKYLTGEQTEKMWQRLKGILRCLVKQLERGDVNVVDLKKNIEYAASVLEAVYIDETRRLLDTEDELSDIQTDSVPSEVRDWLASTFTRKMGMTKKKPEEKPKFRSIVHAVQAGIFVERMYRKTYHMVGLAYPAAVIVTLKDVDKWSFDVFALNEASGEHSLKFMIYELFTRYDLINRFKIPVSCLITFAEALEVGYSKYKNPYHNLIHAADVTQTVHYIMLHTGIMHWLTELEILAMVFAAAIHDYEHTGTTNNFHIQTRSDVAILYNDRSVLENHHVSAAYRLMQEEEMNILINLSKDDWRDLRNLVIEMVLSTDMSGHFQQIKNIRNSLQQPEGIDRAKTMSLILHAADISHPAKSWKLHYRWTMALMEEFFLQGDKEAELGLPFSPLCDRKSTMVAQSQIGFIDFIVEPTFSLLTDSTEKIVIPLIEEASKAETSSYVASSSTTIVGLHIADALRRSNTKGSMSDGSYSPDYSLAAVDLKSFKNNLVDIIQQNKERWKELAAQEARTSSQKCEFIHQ

In the case of `COc1ccc2c(NC3CCOC3C)ncnc2c1OC` (single isomer, unassigned) [3 Stereoisomer 4], the IC50 stood at 270 nM against PDE1C, 120 nM on PDE1B and 580 nM on PDE1A.
On to `COc1ccc2c(N(C)C3(C)CCOC3)ncnc2c1OC` (single isomer, unassigned) [23 Stereoisomer 1], for which the IC50 was 500 nM against PDE1C, 70 nM on PDE1B and 240 nM against PDE1A.
As to `CCN(c1ncnc2c(OC)c(OC)ccc12)[C@H]1CCOC1` [Compound 8, (S)-N-ethyl-7,8-dimethoxy-N-(tetrahydrofuran-3-yl)quinazolin-4-amine], the IC50 on PDE1C stood at 510 nM; at PDE1B, 250 nM; on PDE1A, 480 nM.
Take `COc1ccc2c(NC3CCOC3C)ncnc2c1OC` (single isomer, unassigned) [3 Stereoisomer 3]: the half-maximal inhibitory concentration (IC50) is 390 nM at PDE1C, 100 nM at PDE1B and 890 nM on PDE1A.
For the compound `COc1ccc2c(NC3(C)CCOC3C)ncnc2c1OC` (single isomer, unassigned) [5 Stereoisomer 1], the half-maximal inhibitory concentration (IC50) against PDE1C amounted to 1100 nM; on PDE1B it was 300 nM; against PDE1A, 590 nM.
Take `CCCN(c1ncnc2c(OC)c(OC)ccc12)[C@@H]1CCOC1` [Compound 14, (R)-7,8-dimethoxy-N-propyl-N-(tetrahydrofuran-3-yl)quinazolin-4-amine]: the results for the IC50 against PDE1C, against PDE1B and on PDE1A were 360 nM, 180 nM and 270 nM, respectively.
Turning to `COc1ccc2c(NC3CCOC3)ncnc2c1OC` (single isomer, unassigned) [1 Stereoisomer 1], the IC50 at PDE1C was determined as 280 nM; on PDE1B it was 54 nM; at PDE1A it was 280 nM.
Regarding `COc1ccc2c(NC3CCOC3)ncnc2c1OC` (racemic) [Compound 1, 7,8-Dimethoxy-N-(tetrahydrofuran-3-yl)quinazolin-4-amine], the half-inhibitory concentration (IC50) at PDE1C stood at 590 nM; against PDE1B, 230 nM; against PDE1A it was 1200 nM.
With `CCN(c1ncnc2c(OC)c(OC)ccc12)[C@@H]1CCOC1` [Compound 13, (R)—N-ethyl-7,8-dimethoxy-N-(tetrahydrofuran-3-yl)quinazolin-4-amine], the figures for the IC50 at PDE1C, on PDE1B and against PDE1A were 1500 nM, 600 nM and 1200 nM, respectively.
With `COc1ccc2c(N(Cc3ccccc3)[C@H]3CCOC3)ncnc2c1OC` [Compound 10, (S)-N-benzyl-7,8-dimethoxy-N-(tetrahydrofuran-3-yl)quinazolin-4-amine], the concentration for half-maximal inhibition (IC50) against PDE1C amounted to 1400 nM; on PDE1B, 360 nM; at PDE1A, 820 nM.
For the compound `COc1ccc2c(N(C)C3(C)CCOC3C)ncnc2c1OC` (single isomer, unassigned) [20 Stereoisomer 1], the IC50 worked out at 33 nM at PDE1C, 5 nM against PDE1B and 19 nM on PDE1A.
Consider `COc1ccc2c(N(CC3CC3)[C@@H]3CCOC3)ncnc2c1OC` [Compound 15, (R)—N-(cyclopropylmethyl)-7,8-dimethoxy-N-(tetrahydrofuran-3-yl)quinazolin-4-amine], for which the IC50 against PDE1C turned out to be 2100 nM; against PDE1B, 820 nM; on PDE1A, 2500 nM.
As to `COc1ccc2c(NC3CCOC3(C)C)ncnc2c1OC` (single isomer, unassigned) [21 Stereoisomer 1], the IC50 against PDE1C is 2800 nM; against PDE1B, 780 nM; against PDE1A it was 1500 nM.
As for `COc1ccc2c(NC3(C)CCOC3)ncnc2c1OC` (single isomer, unassigned) [6 Stereoisomer 1], the values for the IC50 at PDE1C, on PDE1B and at PDE1A were 400 nM, 110 nM and 290 nM, respectively.

Source of the values: patent US20150175584A1, “Quinazolin-THF-amines as PDE1 inhibitors” (H. LUNDBECK A/S, priority 2013, published 2015).
